Activity calls are given as the source filed them. How the calls were made is not given here.
System: CCRIS mutagenicity, Ames/micronucleus/aberration tests
Test: CCRIS mutagenicity studies
[1] = Test System: AMES SALMONELLA TYPHIMURIUM, Strain/Indicator: TA98, Metabolic Activation: NONE, Method: PREINCUBATION
[2] = Test System: AMES SALMONELLA TYPHIMURIUM, Strain/Indicator: TA100, Metabolic Activation: NONE, Method: PREINCUBATION
[3] = Test System: AMES SALMONELLA TYPHIMURIUM, Strain/Indicator: TA1535, Metabolic Activation: NONE, Method: PREINCUBATION
[4] = Test System: AMES SALMONELLA TYPHIMURIUM, Strain/Indicator: TA1537, Metabolic Activation: NONE, Method: PREINCUBATION

## CN(C)CCOC(C)(c1ccccc1)c1ccccn1 (stereo unspecified)
Test System: AMES SALMONELLA TYPHIMURIUM, Strain/Indicator: TA98, Metabolic Activation: HAMSTER, LIVER, S-9, AROCLOR 1254 (10%), Method: PREINCUBATION
  mutagenic call: inactive; negative
[1]
  mutagenic call: inactive; negative
Test System: AMES SALMONELLA TYPHIMURIUM, Strain/Indicator: TA98, Metabolic Activation: RAT, LIVER, S-9, AROCLOR 1254 (10%), Method: PREINCUBATION
  mutagenic call: inactive; negative
Test System: AMES SALMONELLA TYPHIMURIUM, Strain/Indicator: TA100, Metabolic Activation: HAMSTER, LIVER, S-9, AROCLOR 1254 (10%), Method: PREINCUBATION
  mutagenic call: inactive; negative
[2]
  mutagenic call: inactive; negative
Test System: AMES SALMONELLA TYPHIMURIUM, Strain/Indicator: TA100, Metabolic Activation: RAT, LIVER, S-9, AROCLOR 1254 (10%), Method: PREINCUBATION
  mutagenic call: inactive; negative
Test System: AMES SALMONELLA TYPHIMURIUM, Strain/Indicator: TA1535, Metabolic Activation: HAMSTER, LIVER, S-9, AROCLOR 1254 (10%), Method: PREINCUBATION
  mutagenic call: inactive; negative
[3]
  mutagenic call: inactive; negative
Test System: AMES SALMONELLA TYPHIMURIUM, Strain/Indicator: TA1535, Metabolic Activation: RAT, LIVER, S-9, AROCLOR 1254 (10%), Method: PREINCUBATION
  mutagenic call: inactive; negative
Test System: AMES SALMONELLA TYPHIMURIUM, Strain/Indicator: TA1537, Metabolic Activation: HAMSTER, LIVER, S-9, AROCLOR 1254 (10%), Method: PREINCUBATION
  mutagenic call: inactive; negative
[4]
  mutagenic call: inactive; negative
Test System: AMES SALMONELLA TYPHIMURIUM, Strain/Indicator: TA1537, Metabolic Activation: RAT, LIVER, S-9, AROCLOR 1254 (10%), Method: PREINCUBATION
  mutagenic call: inactive; negative

## CC1CCC(C(C)CS)CC1S (stereo unspecified)
Test System: AMES SALMONELLA TYPHIMURIUM, Strain/Indicator: TA98, Metabolic Activation: HAMSTER, LIVER, S-9, AROCLOR 1254, Method: PREINCUBATION
  mutagenic call: inactive; negative
[1]
  mutagenic call: inactive; negative
Test System: AMES SALMONELLA TYPHIMURIUM, Strain/Indicator: TA98, Metabolic Activation: RAT, LIVER, S-9, AROCLOR 1254, Method: PREINCUBATION
  mutagenic call: inactive; negative
Test System: AMES SALMONELLA TYPHIMURIUM, Strain/Indicator: TA100, Metabolic Activation: HAMSTER, LIVER, S-9, AROCLOR 1254, Method: PREINCUBATION
  mutagenic call: inactive; negative
[2]
  mutagenic call: inactive; negative
Test System: AMES SALMONELLA TYPHIMURIUM, Strain/Indicator: TA100, Metabolic Activation: RAT, LIVER, S-9, AROCLOR 1254, Method: PREINCUBATION
  mutagenic call: inactive; negative
Test System: AMES SALMONELLA TYPHIMURIUM, Strain/Indicator: TA1535, Metabolic Activation: HAMSTER, LIVER, S-9, AROCLOR 1254, Method: PREINCUBATION
  mutagenic call: inactive; negative
[3]
  mutagenic call: inactive; negative
Test System: AMES SALMONELLA TYPHIMURIUM, Strain/Indicator: TA1535, Metabolic Activation: RAT, LIVER, S-9, AROCLOR 1254, Method: PREINCUBATION
  mutagenic call: inactive; negative
Test System: AMES SALMONELLA TYPHIMURIUM, Strain/Indicator: TA1537, Metabolic Activation: HAMSTER, LIVER, S-9, AROCLOR 1254, Method: PREINCUBATION
  mutagenic call: inactive; negative
[4]
  mutagenic call: inactive; negative
Test System: AMES SALMONELLA TYPHIMURIUM, Strain/Indicator: TA1537, Metabolic Activation: RAT, LIVER, S-9, AROCLOR 1254, Method: PREINCUBATION
  mutagenic call: inactive; negative

## Cc1cc2c(cc1C)-c1cc3ccccc3c3cccc-2c13
Test System: AMES SALMONELLA TYPHIMURIUM, Strain/Indicator: TA100, Metabolic Activation: RAT, LIVER, S-9, AROCLOR 1254
  mutagenic call: active; positive

## COc1cc(N)ccc1C
Test System: AMES SALMONELLA TYPHIMURIUM, Strain/Indicator: TA98, Metabolic Activation: HAMSTER, LIVER, S-9, AROCLOR 1254 (30%), Method: PREINCUBATION
  mutagenic call: active; positive
[1]
  mutagenic call: inactive; negative
Test System: AMES SALMONELLA TYPHIMURIUM, Strain/Indicator: TA98, Metabolic Activation: RAT, LIVER, S-9, AROCLOR 1254 (30%), Method: PREINCUBATION
  mutagenic call: active; positive
Test System: AMES SALMONELLA TYPHIMURIUM, Strain/Indicator: TA100, Metabolic Activation: HAMSTER, LIVER, S-9, AROCLOR 1254 (30%), Method: PREINCUBATION
  mutagenic call: active; positive
[2]
  mutagenic call: inactive; negative
Test System: AMES SALMONELLA TYPHIMURIUM, Strain/Indicator: TA100, Metabolic Activation: RAT, LIVER, S-9, AROCLOR 1254 (30%), Method: PREINCUBATION
  mutagenic call: active; positive

## NC(=O)N(CC(=O)O)N=O
Test System: E. COLI B, Strain/Indicator: H/R30R, Metabolic Activation: NONE
  mutagenic call: active; positive
Test System: E. COLI B, Strain/Indicator: HS30R, Metabolic Activation: NONE
  mutagenic call: active; positive

## O=P(OCC(Br)CBr)(OCC(Br)CBr)OCC(Br)CBr (stereo unspecified)
[2]
  mutagenic call: inactive; negative
Test System: AMES SALMONELLA TYPHIMURIUM, Strain/Indicator: TA100, Metabolic Activation: NONE, Method: STANDARD PLATE
  mutagenic call: inactive; negative
Test System: AMES SALMONELLA TYPHIMURIUM, Strain/Indicator: TA100, Metabolic Activation: RAT LIVER S-9, PHENOBARBITAL, Method: PREINCUBATION
  mutagenic call: active; positive
Test System: AMES SALMONELLA TYPHIMURIUM, Strain/Indicator: TA100, Metabolic Activation: RAT, LIVER, HEPATOCYTES, PHENOBARBITAL, Method: PREINCUBATION
  mutagenic call: active; positive
Test System: AMES SALMONELLA TYPHIMURIUM, Strain/Indicator: TA100, Metabolic Activation: RAT, LIVER, HEPATOCYTES, Method: PREINCUBATION
  mutagenic call: active; positive
Test System: AMES SALMONELLA TYPHIMURIUM, Strain/Indicator: TA100, Metabolic Activation: RAT, LIVER, MICROSOMES, AROCLOR 1254, Method: STANDARD PLATE
  mutagenic call: active; positive
Test System: AMES SALMONELLA TYPHIMURIUM, Strain/Indicator: TA100, Metabolic Activation: RAT, LIVER, MICROSOMES, PHENOBARBITAL, Method: PREINCUBATION
  mutagenic call: active; positive
Test System: AMES SALMONELLA TYPHIMURIUM, Strain/Indicator: TA100, Metabolic Activation: RAT, LIVER, MICROSOMES, Method: PREINCUBATION
  mutagenic call: active; positive
Test System: AMES SALMONELLA TYPHIMURIUM, Strain/Indicator: TA100, Metabolic Activation: RAT, LIVER, S-9, AROCLOR 1254, Method: STANDARD PLATE
  mutagenic call: active; positive
Test System: AMES SALMONELLA TYPHIMURIUM, Strain/Indicator: TA104, Metabolic Activation: RAT LIVER S-9, PHENOBARBITAL, Method: PREINCUBATION
  mutagenic call: active; positive
Test System: AMES SALMONELLA TYPHIMURIUM, Strain/Indicator: TA1535, Metabolic Activation: RAT, LIVER, S-9, AROCLOR 1254, Method: STANDARD PLATE
  mutagenic call: active; positive
Test System: CHINESE HAMSTER V-79, Strain/Indicator: V-79/6-THIOGUANINE, Metabolic Activation: RAT, LIVER, MICROSOMES, PHENOBARBITAL
  mutagenic call: active; positive
Test System: E. COLI, Strain/Indicator: WP2 UVRA, Metabolic Activation: MOUSE, LIVER, S-9, Method: STANDARD PLATE
  mutagenic call: inactive; negative
Test System: E. COLI, Strain/Indicator: WP2 UVRA, Metabolic Activation: NONE, Method: STANDARD PLATE
  mutagenic call: inactive; negative
Test System: E. COLI, Strain/Indicator: WP2 UVRA, Metabolic Activation: RAT, LIVER, S-9, Method: STANDARD PLATE
  mutagenic call: inactive; negative
Test System: UDS RAT HEPATOCYTES, Strain/Indicator: THY INCORP, Metabolic Activation: NONE
  mutagenic call: active; positive
Test System: UDS RODENT HEPATOCYTES, Strain/Indicator: THY INCORP (NON-S-PHASE), Metabolic Activation: RAT, LIVER, HEPATOCYTES, PHENOBARBITAL, Method: LIQUID SCINTILLATION COUNTING
  mutagenic call: active; positive
Test System: UDS RODENT HEPATOCYTES, Strain/Indicator: THY INCORP (NON-S-PHASE), Metabolic Activation: RAT, LIVER, HEPATOCYTES, Method: LIQUID SCINTILLATION COUNTING
  mutagenic call: active; positive

Source: PubChem BioAssay AID1259407 (Chemical Carcinogenesis Research Information System (CCRIS), 2018)
